Test results taken from US5147876A, “2,6-di,2,4,6-, 2,5,6-tri and 2,4,5,6-tetra-substituted pyrimidines, their pharmaceutically acceptable salts, pharmaceutical compositions containing same and their use in the treatment of neurological diseases” (Mitsui Petrochemical Industries, Ltd., priority 1988, dated 1992).
Values joined by “and” are separate entries in the source; they are usually repeats but may differ in a detail not shown here. Equal entries are not always repeated. Structures can show the parent of a compound that is named as a salt.

Key:
[1] = system: neuro-2a (mouse neuroblastoma cells); experiment: Action on neuro-2a: proportion of cells containing outgrown neurites; type: cell-based; settings: mean ± S.D.
Outline: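 Mouse neuro-2a cells at 1,000 cells/well in DMEM with 10% FCS were cultured one day at 37 °C, 5% CO2, then glutaraldehyde-fixed and methylene-blue-stained. The proportion of cells bearing a neurite at least twice the cell's long diameter was counted over >200 cells; up to 6 concentrations, triplicate runs.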

[2] = system: NS-20Y (mouse neuroblastoma cells); experiment: Activity on NS-20Y cells: appearance of neurites; type: cell-based
Outline: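 Mouse neuroblastoma NS-20Y cells were grown in polyornithine-coated dishes in DMEM with 10 % FCS, 100 units/ml penicillin G sodium and 100 micrograms/ml streptomycin sulfate, at 37° C under 5 % carbon dioxide, and exposed to compound. Cells were fixed with 4 % glutaraldehyde, stained with 0.05 % methylene blue, and the fraction bearing neurites at least twice the cell's long diameter was counted microscopically.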

[3] = system: mice; experiment: Acute toxicity on mice; type: in vivo; settings: 24 hours after administration
Method: (§1) The acute toxicity of the compounds of the invention was examined by the following method.
(§2) Male ddy-strain 5-week old mice, 4-6- per group, were used as experimental animals. Each of the compounds was intraperitoneally (i.p.), and the toxicity of the compound was assessed 24 hours after the administration.

[4] = Acute toxicity on mice; type: in vivo; settings: mouse, in vivo, ip, 24 hours after administration; read-out: Estimated LD50
Method: as §1, §2

SMILES | Number of cells having neurites with a length at least two times the diameter of each cell/total number of cells ([1]; 0.03 mM) [%] | Number of cells having neurites with a length at least two times the diameter of each cell/total number of cells ([1]; 0.1 mM) | Number of cells having neurites with a length at least two times the diameter of each cell/total number of cells ([1]; 1 mM) [%] | Number of cells in which neurites appeared/total number of cells ([2]; 48 hours, 0.1 mM) | Number of cells in which neurites appeared/total number of cells ([2]; 24 hours, 0.1 mM) | LD50 at 24 h [4] [mg/kg] | Number of cells having neurites with a length at least two times the diameter of each cell/total number of cells ([1]; 0.3 mM) [%] | other results
CN(C(=O)c1ccc(Cl)cc1Cl)c1ccnc(N2CCC(c3ccccc3)CC2)n1.Cc1ccc(S(=O)(=O)O)cc1 [Compound 171-11] | 5.9 ± 0.9 | 36.8 ± 7.1% and 22.1 ± 2.3% | 31.7 ± 5.9 | 2/50 | – | – | – | Number of cells in which neurites appeared/total number of cells ([2]; 24 hours, 0.3 mM): 5/50; Estimated LD50 [3]: > 1000 mg/kg, i.p.
COCC(=O)N(C)c1ccnc(N2CCC(c3ccccc3)CC2)n1.Cc1ccc(S(=O)(=O)O)cc1 [Compound 154-2] | 3.9 ± 0.6 | 8.9 ± 2.4% | – | – | – | – | – | Estimated LD50 [3]: 500-1000 mg/kg, i.p.
CCN(C(=O)c1ccccc1)c1ccnc(N2CCC(c3ccccc3)CC2)n1 [Compound 176] | 5.3 ± 1.9 | 3.2 ± 3.1% | – | – | 8/50 | > 1000 | – | Number of cells in which neurites appeared/total number of cells ([2]; 48 hours, 0.02 mM): 2/50
CC(=O)N(C)c1ccnc(N2CCCCC2)n1 [Compound 128] | – | – | 19.8 ± 2.8 | – | – | > 1000 | 9.9 ± 0.6 | Number of cells having neurites with a length at least two times the diameter of each cell/total number of cells ([1]; 0.5 mM): 9.1 ± 0.7%; Number of cells having neurites with a length at least two times the diameter of each cell/total number of cells ([1]; 2 mM): 14.3 ± 2.4%; Number of cells in which neurites appeared/total number of cells ([2]; 24 hours, 0.3 mM): 4/49; Number of cells in which neurites appeared/total number of cells ([2]; 24 hours, 1.0 mM): 23/55; Number of cells in which neurites appeared/total number of cells ([2]; 48 hours, 0.3 mM): 31/50; Number of cells in which neurites appeared/total number of cells ([2]; 48 hours, 0.5 mM): 21/50
CN(C(=O)c1ccccc1)c1ccnc(N2CCC(c3ccccc3)CC2)n1 [Compound 169] | – | 34.1 ± 5.7% | – | – | – | – | 16.6 ± 5.2 | Estimated LD50 [3]: > 1000 mg/kg, i.p.
CN(C(=O)c1ccccc1)c1ccnc(N2CCC(c3ccccc3)CC2)n1 [Compound 170, 4-(N-methylbenzamino)-2-(4-phenylpiperidino)pyrimidine hydrochloride] | – | – | – | – | – | – | – | Number of cells having neurites with a length at least two times the diameter of each cell/total number of cells ([1]; 0.1 mM, hydrochloride): 33.5 ± 2.4%; Number of cells having neurites with a length at least two times the diameter of each cell/total number of cells ([1]; 0.3 mM, hydrochloride): 31.0 ± 4.6%; Estimated LD50 [3]: > 1000 mg/kg, i.p.
CN(C(=O)c1ccc(-c2ccccc2)cc1)c1ccnc(N2CCC(c3ccccc3)CC2)n1 [Compound 288] | 1.4 ± 0.1 | 3.3 ± 0.9% | 5.1 ± 2.7 | 2/50 | 2/52 | 500 to 1000 | 3.8 ± 1.9 | –
CC(C)C(=O)N(C)c1ccnc(N2CCC(c3ccccc3)CC2)n1 [Compound 216] | 6.3 ± 2.4 | 26.6 ± 5.6% | – | – | – | > 1000 | – | Number of cells having neurites with a length at least two times the diameter of each cell/total number of cells ([1]; 0.01 mM): 3.7 ± 0.4%; Number of cells in which neurites appeared/total number of cells ([2]; 24 hours, 0.025 mM): 3/49; Number of cells in which neurites appeared/total number of cells ([2]; 48 hours, 0.025 mM): 24/50; Number of cells in which neurites appeared/total number of cells ([2]; 48 hours, 0.05 mM): 20/50
CN(C(=O)c1ccco1)c1nccc(N2CCC(c3ccccc3)CC2)n1 [Compound 684] | 5.8 ± 2.0 | 16.4 ± 2.8% | – | – | 2.50 | 500 to 1000 | – | Number of cells having neurites with a length at least two times the diameter of each cell/total number of cells ([1]; 0.01 mM): 3.8 ± 0.5%; Number of cells in which neurites appeared/total number of cells ([2]; 48 hours, 0.05 mM): 2/50
COc1cc(C(=O)N(C)c2ccnc(N3CCC(c4ccccc4)CC3)n2)cc(OC)c1OC [Compound 280] | 4.5 ± 1.2 | 17.2 ± 1.3% | 17.4 ± 2.6 | 8/53 | – | 500 to 1000 | 13.4 ± 3.5 | Number of cells in which neurites appeared/total number of cells ([2]; 24 hours, 0.2 mM): 3/50
CC(=O)N(C)c1ccnc(N2CCCc3ccccc32)n1 [Compound 320] | – | 7.2 ± 0.2% | – | 6/50 | 8/50 | > 1000 | 8.5 ± 1.1 | –
CCCCN(CCCC)c1nccc(N(C)C(=O)c2ccccc2)n1 [Compound 112] | 4.8 ± 0.1 | 18.6 ± 5.2% | 7.6 ± 4.9 | – | – | > 1000 | 2.6 ± 0.6 | Number of cells in which neurites appeared/total number of cells ([2]; 24 hours, 0.025 mM): 4/51; Number of cells in which neurites appeared/total number of cells ([2]; 48 hours, 0.01 mM): 4/49; Number of cells in which neurites appeared/total number of cells ([2]; 48 hours, 0.025 mM): 9/50
O=C(c1ccccc1)N(Cc1ccccc1)c1nccc(N2CCC(c3ccccc3)CC2)n1 [Compound 660] | 13.5 ± 1.3 | 9.1 ± 3.7% | – | 4/50 | 5/50 | 500 to 1000 | – | –
CN(C(=O)C1CCCCC1)c1ccnc(N2CCC(c3ccccc3)CC2)n1 [Compound 232] | 3.9 ± 1.8 | 18.7 ± 5.2% | – | – | – | > 1000 | – | Number of cells in which neurites appeared/total number of cells ([2]; 24 hours, 0.025 mM): 2/50; Number of cells in which neurites appeared/total number of cells ([2]; 48 hours, 0.01 mM): 2/49
CN(C(=O)c1ccccc1)c1ccnc(N2CCN(C(c3ccccc3)c3ccc(Cl)cc3)CC2)n1 (stereo not shown) [Compound 376] | 13.6 ± 1.2 | 14.7 ± 1.5% | 16.4 ± 3.0 | 2/50 | – | 500 to 1000 | 17.2 ± 1.4 | Number of cells in which neurites appeared/total number of cells ([2]; 24 hours, 0.2 mM): 2/50
O=C(c1ccccc1)N(Cc1ccccc1)c1ccnc(N2CCC(c3ccccc3)CC2)n1 [Compound 192] | – | – | 14.6 ± 1.0 | – | – | 500 to 1000 | 12.1 ± 1.5 | Number of cells in which neurites appeared/total number of cells ([2]; 24 hours, 0.4 mM): 23/50; Number of cells in which neurites appeared/total number of cells ([2]; 48 hours, 0.4 mM): 4/50
CN(C(=O)c1ccccc1)c1ccnc(N2CCN(c3ccccc3)CC2)n1 [Compound 360] | 6.5 ± 0.7 | 10.0 ± 0.7% | – | 4/50 | 18/50 | > 1000 | – | Number of cells in which neurites appeared/total number of cells ([2]; 24 hours, 0.02 mM): 8/50
